Common to all, as to type: functional
For test [1], the system named is Staphylococcus aureus. The experiment in a line: Antibacterial activity against hetero-Methicillin-resistant and tetracycline-resistant Staphylococcus aureus deltaIP by Etest method.
Test [2] relates to Staphylococcus aureus. Kind of test: Antibacterial activity against homo-Methicillin-resistant and tetracycline-resistant Staphylococcus aureus H14 harboring vraS S329L mutant gene by Etest method.
Test [3] relates to Staphylococcus aureus. The experiment in a line: Antibacterial activity against methicillin-susceptible, tetracycline-resistant and chloramphenicol-resistant Staphylococcus aureus deltaIP-KVR by Etest method.
Test [4] concerns Staphylococcus aureus. Kind of test: Antibacterial activity against methicillin-susceptible, tetracycline-resistant and chloramphenicol-resistant Staphylococcus aureus H14-KVR by Etest method.
The test system of test [5] is Staphylococcus aureus. The experiment in a line: Antibacterial activity against hetero-Methicillin-resistant and tetracycline-resistant and rifampicin-resistant Staphylococcus aureus deltaIP-rifR harboring RpoB H481Y mutant gene by Etest method.
For test [6], the system named is Staphylococcus aureus. Kind of test: Antibacterial activity against homo-Methicillin-resistant and tetracycline-resistant Staphylococcus aureus deltaIP::vraSH14 harboring vraSH14 S329L mutant gene by Etest method.
Test [7] deals with Staphylococcus aureus. The experiment in a line: Antibacterial activity against homo-Methicillin-resistant and tetracycline-resistant and rifampicin-resistant Staphylococcus aureus deltaIP-rifR::vraSH14 by Etest method.
Test [8] relates to Staphylococcus aureus. Kind of test: Antibacterial activity against hetero-vancomycin-intermediate Staphylococcus aureus Mu3 by Etest method.

≈ marks a conversion by molar mass, not a printed value. Positions of bridges follow the written chain, without caps; N, C: chain ends. Non-standard residues stand in square brackets, D forms with d. Residues, ends and D or L forms follow the SMILES beside them. *: point of attachment. Ileψ(thiazoline)Cys = CC[C@H](C)[C@H](N)C1=N[C@H](C(=O)*)CS1; dOrn = NCCC[C@@H](N)C(=O)O

The term MIC denotes the smallest concentration in the dilution series that meets the test's criterion for growth inhibition. On to `Cc1onc(-c2ccccc2)c1C(=O)N[C@@H]1C(=O)N2[C@@H]1SC(C)(C)[C@@H]2C(=O)O` [OXACILLIN], for which the MIC was 6 µg/mL (≈ 14.9 µM) against Staphylococcus aureus [1]; over 256 µg/mL in the test with Staphylococcus aureus [2]; 1.5 µg/mL (≈ 3.74 µM) in the test on Staphylococcus aureus [3]; 1.5 µg/mL (≈ 3.74 µM) with Staphylococcus aureus [4]; 5 µg/mL (≈ 12.5 µM) against Staphylococcus aureus [5]; over 256 µg/mL in the test with Staphylococcus aureus [6]. For the same molecule, the MIC in the test on Staphylococcus aureus [7] and against Staphylococcus aureus [8] was over 256 µg/mL each time.

Consider GENTAMICIN, for which the MIC in the test with Staphylococcus aureus [1] was 0.75 µg/mL; in the test on Staphylococcus aureus [2], 0.75 µg/mL; with Staphylococcus aureus [3], 0.75 µg/mL; in the test with Staphylococcus aureus [4], 0.75 µg/mL; against Staphylococcus aureus [5], 1 µg/mL; with Staphylococcus aureus [6], 0.75 µg/mL. In addition, the values for the MIC in the test on Staphylococcus aureus [7] and in the test with Staphylococcus aureus [8] were 1 µg/mL and 384 µg/mL, respectively.

As to `C[C@@H](O)[C@H]1C(=O)N2C(C(=O)O)=C(SCCNC=N)C[C@H]12` [IMIPENEM ANHYDROUS], the MIC against Staphylococcus aureus [1] was 0.75 µg/mL (≈ 2.51 µM); with Staphylococcus aureus [2], over 32 µg/mL; against Staphylococcus aureus [3], 0.19 µg/mL (≈ 0.635 µM); in the test with Staphylococcus aureus [4] it was 0.19 µg/mL (≈ 0.635 µM); in the test on Staphylococcus aureus [5] it was 1 µg/mL (≈ 3.34 µM); with Staphylococcus aureus [6] it was over 32 µg/mL. For the same molecule, the minimum inhibitory concentration (MIC) against Staphylococcus aureus [7] and against Staphylococcus aureus [8] was over 32 µg/mL each time.

Turning to `CN[C@H](CC(C)C)C(=O)N[C@H]1C(=O)N[C@@H](CC(N)=O)C(=O)N[C@H]2C(=O)N[C@H]3C(=O)N[C@H](C(=O)N[C@H](C(=O)O)c4cc(O)cc(O)c4-c4cc3ccc4O)[C@H](O)c3ccc(c(Cl)c3)Oc3cc2cc(c3O[C@@H]2O[C@H](CO)[C@@H](O)[C@H](O)[C@H]2O[C@H]2C[C@](C)(N)[C@H](O)[C@H](C)O2)Oc2ccc(cc2Cl)[C@H]1O` [VANCOMYCIN], the MIC against Staphylococcus aureus [3] came out at 0.75 µg/mL (≈ 0.518 µM); in the test with Staphylococcus aureus [4], 0.75 µg/mL (≈ 0.518 µM); in the test on Staphylococcus aureus [7], 3 µg/mL (≈ 2.07 µM); in the test with Staphylococcus aureus [8], 3 µg/mL (≈ 2.07 µM).

For `CO[C@H]1/C=C/O[C@@]2(C)Oc3c(C)c(O)c4c(O)c(c(/C=N/N5CCN(C)CC5)c(O)c4c3C2=O)NC(=O)/C(C)=C\C=C\[C@H](C)[C@H](O)[C@@H](C)[C@@H](O)[C@@H](C)[C@H](OC(C)=O)[C@@H]1C` [RIFAMPIN], the minimal inhibitory concentration (MIC) in the test on Staphylococcus aureus [1] was 0.004 µg/mL (≈ 0.00486 µM); with Staphylococcus aureus [2], 0.004 µg/mL (≈ 0.00486 µM); against Staphylococcus aureus [3], 0.004 µg/mL (≈ 0.00486 µM); in the test on Staphylococcus aureus [4] it was 0.004 µg/mL (≈ 0.00486 µM); against Staphylococcus aureus [5], over 32 µg/mL; against Staphylococcus aureus [6] it was 0.004 µg/mL (≈ 0.00486 µM). The MIC against Staphylococcus aureus [7] was over 32 µg/mL; against Staphylococcus aureus [8] it was 0.006 µg/mL (≈ 0.00729 µM).

Regarding `CCCCCCCCCC(=O)N[C@@H](Cc1c[nH]c2ccccc12)C(=O)N[C@H](CC(N)=O)C(=O)N[C@@H](CC(=O)O)C(=O)N[C@@H]1C(=O)NCC(=O)N[C@@H](CCCN)C(=O)N[C@@H](CC(=O)O)C(=O)N[C@H](C)C(=O)N[C@@H](CC(=O)O)C(=O)NCC(=O)N[C@H](CO)C(=O)N[C@@H]([C@H](C)CC(=O)O)C(=O)N[C@@H](CC(=O)c2ccccc2N)C(=O)O[C@@H]1C`, the MIC in the test with Staphylococcus aureus [1] was 0.75 µg/mL (≈ 0.463 µM); in the test with Staphylococcus aureus [2] it was 1.75 µg/mL (≈ 1.08 µM); against Staphylococcus aureus [3], 0.5 µg/mL (≈ 0.309 µM); with Staphylococcus aureus [4] it was 0.5 µg/mL (≈ 0.309 µM); against Staphylococcus aureus [5], 0.5 µg/mL (≈ 0.309 µM); in the test on Staphylococcus aureus [6], 1.75 µg/mL (≈ 1.08 µM). The MIC against Staphylococcus aureus [7] and with Staphylococcus aureus [8] was 2 µg/mL (≈ 1.23 µM) in each case.

For the molecule `C[C@@H]1O[C@@H]1P(=O)(O)O` [FOSFOMYCIN], the MIC is 1 µg/mL (≈ 7.24 µM) against Staphylococcus aureus [1]; 96 µg/mL (≈ 695 µM) in the test with Staphylococcus aureus [2]; 0.38 µg/mL (≈ 2.75 µM) against Staphylococcus aureus [3]; 0.38 µg/mL (≈ 2.75 µM) against Staphylococcus aureus [4]; 1.5 µg/mL (≈ 10.9 µM) against Staphylococcus aureus [5]; 96 µg/mL (≈ 695 µM) against Staphylococcus aureus [6]. Further, the MIC with Staphylococcus aureus [7] is 96 µg/mL (≈ 695 µM); with Staphylococcus aureus [8] it was over 1020 µg/mL.

`CC[C@H](C)[C@H](N)C1=N[C@H](C(=O)N[C@@H](CC(C)C)C(=O)N[C@H](CCC(=O)O)C(=O)N[C@H](C(=O)N[C@H]2CCCCNC(=O)[C@H](CC(N)=O)NC(=O)[C@@H](CC(=O)O)NC(=O)[C@H](Cc3cnc[nH]3)NC(=O)[C@@H](Cc3ccccc3)NC(=O)[C@H]([C@@H](C)CC)NC(=O)[C@@H](CCCN)NC2=O)[C@@H](C)CC)CS1` [BACITRACIN] ({Ileψ(thiazoline)Cys}-L[dE]IK[dOrn]I[dF]H[dD]N; lactam 4-C): the MIC with Staphylococcus aureus [1] was 32 µg/mL (≈ 22.5 µM); in the test on Staphylococcus aureus [2], 96 µg/mL (≈ 67.5 µM); with Staphylococcus aureus [3], 4 µg/mL (≈ 2.81 µM); against Staphylococcus aureus [4] it was 4 µg/mL (≈ 2.81 µM); against Staphylococcus aureus [5], 24 µg/mL (≈ 16.9 µM); in the test on Staphylococcus aureus [6], 96 µg/mL (≈ 67.5 µM). In addition, the MIC was determined as 96 µg/mL (≈ 67.5 µM) with Staphylococcus aureus [7] and 256 µg/mL (≈ 180 µM) in the test on Staphylococcus aureus [8].

The values above are taken from ChEMBL document CHEMBL1649526, “Selection of heterogeneous vancomycin-intermediate Staphylococcus aureus by imipenem” (2009).
